This note sets out measurements from US20260258050A1, “IMMUNOMODULATOR” (HITGEN INC., priority 2023, published 2026).

Experiment [1] concerns the target T1, Human IL-17A (Homo sapiens, UniProt Q16552).
T1 sequence (Q16552 20-155 limits assumed): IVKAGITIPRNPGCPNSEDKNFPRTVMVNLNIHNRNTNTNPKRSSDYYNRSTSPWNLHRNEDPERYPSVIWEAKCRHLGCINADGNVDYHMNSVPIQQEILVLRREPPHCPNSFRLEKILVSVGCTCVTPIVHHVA
Description: IL-17A enzyme-linked immunosorbent assay (competitive ELISA, IL-17A/IL-17Ra receptor-ligand binding). Set-up: purchased Sino Biological Inc. 12047-H07B. The conditions noted are these: human IL-17A coated plate, human IL-17Ra, read-out: IC50, inhibitory activity of compounds on human IL-17A. Summed up: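 Competitive ELISA with plates coated with human IL-17A at 0.2 μg/ml, blocked with 5% skim milk. Compound pre-incubated with IL-17A 10 min at 25 °C, then 16 nM IL-17Ra stock added for 30 min. Bound receptor detected by anti-Fc HRP/TMB, A450. IC50 from variable-slope fit of blank-corrected residual activity.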

Another experiment addresses T2, Human IL-17AF (Homo sapiens, UniProt Q16552+Q96PD4).
T2 construct: purchased Sino Biological Inc. CT047-H08H
T2 sequence (Q16552 24-155): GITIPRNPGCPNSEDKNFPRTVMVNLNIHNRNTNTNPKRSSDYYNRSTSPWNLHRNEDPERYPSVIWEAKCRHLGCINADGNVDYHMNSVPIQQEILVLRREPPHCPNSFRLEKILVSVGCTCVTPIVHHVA
T2 sequence (Q96PD4 31-163): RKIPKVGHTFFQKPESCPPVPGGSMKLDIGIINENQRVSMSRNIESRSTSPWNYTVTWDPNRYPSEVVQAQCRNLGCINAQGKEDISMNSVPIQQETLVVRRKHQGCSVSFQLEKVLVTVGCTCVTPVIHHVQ
Put plainly: IL-17AF ELISA (competitive ELISA, IL-17AF/IL-17Ra receptor-ligand binding). As to conditions: human IL-17AF coated plate, human IL-17Ra, read-out: IC50, inhibitory activity of compounds on human IL-17AF. Here is the method:
Experiment Example 2 IL-17AF ELISA
The inhibitory effects of human IL-17AF inhibitors on receptor-ligand binding were quantitatively determined by a competitive ELISA.
The ELISA was performed through the following steps.
Human IL-17AF (Sino Biological Inc., Cat #CT047-H08H) was diluted with coating buffer (50 mM PBS, pH 7.4) to reach a concentration of 0.625 μg/ml. 100 μL of the resulting solution was added to each well of a 96-well plate, and the plate was incubated at 37° C. for 30 min. In the blank group, 100 μL of coating buffer was added instead of the IL-17AF solution.
The plate was washed four times with 10 mM PBST (pH 7.4). 200 μL was used per well for each wash. After the final wash, the plate was tapped dry on absorbent paper.
Fresh 5% (w/v) skim milk solution was prepared before the experiment. For example, 5 grams of skim milk powder (Bio-Rad, Cat #170-6404) was completely dissolved in 100 mL of 10 mM PBST. 200 μL of the 5% (w/v) skim milk solution was added to each well, and the plate was incubated on a shaker at 25° C. for 30 min.
(S4) Preparation of 100× to-be-Tested Compound Solutions
During step (S3), the to-be-tested compound solutions were prepared. Each powdered compound was dissolved in dimethyl sulfoxide (DMSO) to reach a stock concentration of 10 mM. The to-be-tested compound solutions were then serially diluted four-fold with DMSO to obtain nine concentrations ranging from […].
(S6) Pre-Incubation of IL-17AF with to-be-Tested Compound Solutions
89 μL of PBST and 1 μL of each of the to-be-tested compound solutions were added to each well and mixed. The plate was pre-incubated at 25° C. for 10 min. In the blank group and the control group, 1 μL of DMSO was added instead of the to-be-tested compound solutions.
(S7) Incubation with Human IL-17Ra
10 μL of 100 nM IL-17Ra (Sino Biological Inc., Cat #10895-H03H) was added to each well, followed by incubation on a shaker at 25° C. for 30 min. The receptor solution was prepared in 10 mM PBST.
(S9) Incubation with Horseradish Peroxidase-Conjugated Antibody
100 μL of mouse anti-Fc tag HRP-conjugated antibody (Sino Biological Inc., Cat #10702-MM01T-H) was added to each well. The plate was incubated on a shaker at 25° C. for 30 min. The antibody was diluted with 5% (w/v) skim milk solution at 1:5,000 (v/v).
100 μL of TMB substrate solution (BD, Cat #555214) was added to each well. Substrate A and substrate B were freshly mixed at a volume ratio of 1:1 before use. The plate was incubated in the dark at 25° C. for 5-15 min.
(S12) Termination and Detection
The color reaction was terminated by addition of 2.5 M HCl. Absorbance was measured at 450 nm using a BMG PHERStar microplate reader.
(S13) Calculation of Half-Maximal Inhibitory Concentration (IC50)
The relative percent residual activity at each compound concentration was calculated according to Equation 1. The IC50 value of each test compound was then calculated in GraphPad 6 using the equation for log(inhibitor) versus normalized response with variable slope, as shown in Equation 2.
relative percent residual activity (%)=[(absorbance of sample−absorbance of blank group)/(absorbance of control group−absorbance of blank group)]%. Equation 1: […]
The compounds prepared in the Examples were tested for IL-17AF inhibitory activity according to the above method.

Experiment [2] concerns the target T1, Human IL-17A. Description: Inhibition of human IL-17A protein-induced GROα/CXCL1 production in HT-29 cells. Type of experiment: cell-based. Set-up: purchased R&D 317-ILB; host or cells: added exogenously to HT-29 cells. As to conditions: 30 ng/mL human IL-17A protein, 48 h, GROα in supernatant by ELISA kit, read-out: Inhibitory IC50 of compounds on HT-29 cell GROα/CXCL1. Here is the method:
Experiment Example 3 Inhibition of Human IL-17A Protein-Induced GROα/CXCL1 Production in HT-29 Cells by Compounds
This assay was conducted to evaluate the ability of the compounds to inhibit human IL-17A protein-induced production of the chemokine growth-regulated oncogene alpha/C-X-C motif chemokine ligand 1 (GROα/CXCL1) in HT-29 cells.
Human colorectal adenocarcinoma epithelial HT-29 cells (Chengdu Zhongyuan Gongchuang Technology Co., Ltd.) were seeded into a 96-well plate at a density of 5×10^4 cells per well and were cultured overnight in an incubator at 37° C.
30 ng/mL of human IL-17A protein (R&D, #317-ILB) was mixed with gradient concentrations of the IL-17A small-molecule inhibitor, or with […] of a positive control IL-17A antibody (R&D, #AF-317-NA). These mixtures were incubated at 37° C. for 1 h and were then added to the plate. The mixtures were co-incubated with the HT-29 cells at 37° C. for 48 h. Thereafter, the level of GROα in the cell culture supernatant was determined using a GROα ELISA kit (Cisbio, #62HCXC1PEG).
The inhibitory activity of each compound was expressed as the half-maximal inhibitory concentration (IC50) for inhibition of GROα/CXCL1 production in HT-29 cells.
Background: ELISA stands for enzyme-linked immunosorbent assay.

Molecules are shown by their SMILES.

As for `Cc1[nH]nc2c1-c1cc(F)c(NC(=O)[C@@H](NC(=O)c3ccnn3CCN3CCOCC3)C(C3CC3)C3CC3)cc1COCC2` [compound 97], the values for the IC50 at Human IL-17A [1] and on Human IL-17AF were 50 to 150 nM and 100 to 500 nM, respectively.

Regarding `CCn1nccc1C(=O)N[C@H](C(=O)Nc1ccc2c(c1)COCCc1n[nH]c(C)c1-2)C1c2ccc(F)cc2OCC12CC2` (stereo partly shown) [compound 9], the IC50 was at most 50 nM at Human IL-17A [1] and 100 to 500 nM on Human IL-17AF.

Take `CCn1nccc1C(=O)N[C@H](C(=O)Nc1ccc2c(c1)COCCc1n[nH]c(C)c1-2)C1CCCCC1` [compound 8]: the IC50 at Human IL-17A [1] was in the range of 50 to 150 nM; at Human IL-17AF, 100 to 500 nM.

Regarding `Cc1[nH]nc2c1-c1cc(F)c(NC(=O)[C@@H](NC(=O)c3ccnn3CC(F)(F)F)C(C3CC3)C3CC3)cc1COCC2` [compound 94], the IC50 at Human IL-17A [1] is at most 50 nM; at Human IL-17AF it was 100 to 500 nM.

As for `Cc1[nH]nc2c1-c1cc(F)c(NC(=O)[C@@H](NC(=O)c3ccnn3C(C)C)C(C3CC3)C3CC3)cc1CN(C(C)C)CC2` [compound 162], the figures for the IC50 on Human IL-17A [1] and on Human IL-17AF were 50 to 150 nM and 100 to 500 nM, respectively.

Take `CCc1nocc1C(=O)N[C@H](C(=O)Nc1cc2c(cc1F)-c1c(n[nH]c1C)CCOC2)C(C1CC1)C1CC1` [compound 33]: the IC50 on Human IL-17A [1] was at most 50 nM; on Human IL-17AF, at most 100 nM.

As for `COCCn1nccc1C(=O)N[C@H](C(=O)Nc1cc2c(cc1F)-c1c(n[nH]c1C)CCOC2)C(C1CC1)C1CC1` [compound 57], the IC50 on Human IL-17A [1] was at most 50 nM; at Human IL-17AF, 100 to 500 nM.

`Cc1[nH]nc2c1-c1cc(F)c(NC(=O)[C@@H](NC(=O)c3conc3C3CC3)C(C3CC3)C3CC3)cc1COCC2` [compound 34]: the IC50 at Human IL-17A [1] was at most 50 nM; at Human IL-17AF, at most 100 nM.

On to `[2H]C([2H])([2H])n1nccc1C(=O)N[C@H](C(=O)Nc1ccc2c(c1)COCCc1n[nH]c(C)c1-2)C(C1CC1)C1CC1` [compound 7], for which the IC50 on Human IL-17A [1] fell in the range of 50 to 150 nM; at Human IL-17AF it was 100 to 500 nM.

Regarding `CCn1nccc1C(=O)N[C@H](C(=O)Nc1cc2c(cc1F)-c1c(n[nH]c1C)CC(=O)N(CCOC)C2)C(C1CC1)C1CC1` [compound 138], the results for the IC50 on Human IL-17AF and on Human IL-17A [2] were at most 100 nM and 100 to 500 nM, respectively.

As to `COCCN1Cc2cc(NC(=O)[C@@H](NC(=O)c3ccnn3C(C)C)C(C3CC3)C3CC3)c(F)cc2-c2c(n[nH]c2C)CC1=O` [compound 137], the IC50 on Human IL-17AF was at most 100 nM; at Human IL-17A [2], 100 to 500 nM.

Take `CCn1nccc1C(=O)N[C@H](C(=O)Nc1cc2c(cc1F)-c1c(n[nH]c1C)CC(C)OC2)C(C1CC1)C1CC1` (single isomer, unassigned) [compound 119b]: the IC50 at Human IL-17A [1] is at most 50 nM; on Human IL-17AF, 100 to 500 nM.

In the case of `Cc1[nH]nc2c1-c1cc(F)c(NC(=O)[C@@H](NC(=O)c3ccnn3C(C)C)C(C3CC3)C3CC3)cc1CN(C(C)C(F)(F)F)C(=O)C2` (single isomer, unassigned) [compound 186b], the figures for the IC50 at Human IL-17A [1] and at Human IL-17AF were at most 50 nM and 100 to 500 nM, respectively.

On to `Cc1[nH]nc2c1-c1cc(F)c(NC(=O)[C@@H](NC(=O)c3ccnn3C(C)C)C(C3CC3)C3CC3)cc1CN(C)CC2` [compound 154], for which the IC50 at Human IL-17A [1] was at most 50 nM; on Human IL-17AF, 100 to 500 nM.

As for `CCn1nccc1C(=O)N[C@H](C(=O)Nc1cc2c(cc1F)-c1c(n[nH]c1C)CC(C)(C)OC2)C(C1CC1)C1CC1` [compound 117], the IC50 at Human IL-17A [1] is at most 50 nM; at Human IL-17AF it was 100 to 500 nM.

In the case of `CCn1nccc1C(=O)N[C@H](C(=O)Nc1ccc2c(c1)COCCc1n[nH]c(C)c1-2)[C@H]1CC[C@H](C)CC1` [compound 10], the IC50 on Human IL-17A [1] is at most 50 nM; at Human IL-17AF it was 100 to 500 nM.

`Cc1[nH]nc2c1-c1cc(F)c(NC(=O)[C@@H](NC(=O)c3ccnn3C)C(C3CC3)C3CC3)cc1CN(C)C(=O)C2` [compound 134]: the values for the IC50 on Human IL-17A [1] and on Human IL-17AF were 50 to 150 nM and 100 to 500 nM, respectively.
